From patent US20200165194A1, “ADDITIVE COMPOSITION FOR CULTURE MEDIUM, ADDITIVE COMPOUND FOR CULTURE MEDIUM, AND METHOD FOR CULTURE OF CELLS OR TISSUE USING SAME” (NISSAN CHEMICAL CORPORATION, priority 2017, published 2020) come the findings set out here.

Read-outs that look alike come from different tables or passages of the source.

The subject of data set [1] is SKOV3 cells (human ovarian cancer-derived cell line). Put plainly: Cell proliferation activity in three-dimensional medium FCeM, ATP assay (Experimental Example 1). It is filed as cell-based. As to conditions: SKOV3, 3D medium FCeM, 4 days, DMSO control = 100%, average of two tests; for proliferation rate (%): compound 5 μM. The procedure: A cell proliferation promoting effect when the compound to be used in the present invention was added to a three-dimensional medium was studied. Specifically, precultured (adhesion cultured) SKOV3 cells (human ovarian cancer-derived cell line) were recovered and suspended in a three-dimensional cell culture medium (“FCeM (registered trade mark)” (Nissan chemical corporation)) to prepare a cell suspension. […] The cell suspension seeded in the plate was stood overnight at 37° C., 5% CO2. Then, a DMSO diluted solution (4.44 μL) of the compound to be used in the present invention was added at a final concentration of 5 μM (or two steps of […] and 10 μM) (no stirring after addition). After addition of each compound, the mixtures were stood for 4 days at 37° C., 5% CO2. […] The luminescence intensity (RLU value) was measured by FlexStation3 (manufactured by Molecular Devices), and cell proliferation was evaluated.
The proliferation rate was calculated based on the control (cells added with DMSO without containing the compound to be used in the present invention) as the standard (100%). The values shown in the tables are average values of the results of two tests.

Data set [2] concerns human ovarian cancer cell line SKOV3. Put plainly: Action on SKOV3 cell-2: 3D (deacylated gellan gum) and 2D culture, EGF medium, ATP assay (Experimental Example 3). The settings on record: for relative value of RLU (number of viable cells) / viability at 1 µM / viability at 5 µM / viability at 10 µM / viability at 20 µM: 4 days, compound non-addition = 100%; for viability at 1 µM / viability at 5 µM / viability at 10 µM / viability at 20 µM: Homo sapiens, SK-OV-3, 96 h.

Setting [3] is: single layer culture (2D) of SKOV3 cells.
Setting [4] is: three-dimensional culture (3D) of SKOV3 cells.

For `CCOC(=O)C/N=C(\CC)c1ccc(O)c(C)c1O` [k-1:A-1], in data set [1], the “proliferation rate (%) (5 μM)” value is on record as 119.1% and the “proliferation rate (%) (10 μM)” value was found to be 119.4%.

`CC/C(=N\CC(=O)OCc1ccccc1)c1ccc(O)c(C)c1O` [k-1:A-2]: in data set [1], the “proliferation rate (%) (5 μM)” value is 118.8% and the “proliferation rate (%) (10 μM)” value was 129.4%.

For the compound `CCCCCCCC/N=C(\CC)c1ccc(O)c(C)c1O` [k-1:A-3], in data set [1], the “proliferation rate (%) (5 μM)” value is 118.1% and the “proliferation rate (%) (10 μM)” value turned out to be 112.6%.

As to `CC/C(=N\C(=O)Nc1ccccc1)c1ccc(O)c(C)c1O` [k-1:A-5], in data set [1], the “proliferation rate (%) (5 μM)” value amounted to 113% and the “proliferation rate (%) (10 μM)” value is reported as 124.3%.

Turning to `CCC(=NNC(=O)CNc1ccc(O)cc1)c1ccc(O)c(C)c1O` [k-1:D-2], the “relative value of RLU (number of viable cells)” value in data set [2] (2D single layer culture, 1 μM) is given as 101%; in data set [2] (2D single layer culture, 5 μM) it was 94%; in data set [2] (2D single layer culture, 10 μM), 82%; in data set [2] (2D single layer culture, 20 μM), 59%; in data set [2] (3D culture (deacylated gellan gum), 1 μM), 116%; in data set [2] (3D culture (deacylated gellan gum), 5 μM), 129%. Further, the “relative value of RLU (number of viable cells)” value in data set [2] (3D culture (deacylated gellan gum), 10 μM) was 143%; in data set [2] (3D culture (deacylated gellan gum), 20 μM) it was 126%. For the same compound, the “cell proliferation promoting effect (in words)” value in data set [2] (setting [3]) is given as “a favorable cell proliferation promoting effect was not observed”; in data set [2] (setting [4]), “exhibited cell proliferation promoting effect at a wide concentration range”.

As to `CCC(=NNC(=O)CNc1ccccc1C)c1ccc(O)c(C)c1O` [k-1:H-2], in data set [1], the “proliferation rate (%)” value was determined as 147.27%.

Consider `CCC(=NNC(=O)CNc1cccc(C)c1)c1ccc(O)c(C)c1O` [k-1:H-3], for which the “proliferation rate (%)” value in data set [1] worked out at 168.98%.

On to `CCC(=NNC(=O)CNc1ccc(C)cc1)c1ccc(O)c(C)c1O` [k-1:H-4], for which the “proliferation rate (%)” value in data set [1] was found to be 105.07%.

Consider `CCC(=NNC(=O)CNc1ccc(F)cc1)c1ccc(O)c(C)c1O` [k-1:H-5], for which, in data set [1], the “proliferation rate (%)” value was determined as 154.19%.

Turning to `CCC(=NNC(=O)CNc1cccc2ccccc12)c1ccc(O)c(C)c1O` [k-1:H-6], the “proliferation rate (%)” value in data set [1] is on record as 125.68%.

Consider `CCOc1ccc(NCC(=O)NN=C(CC)c2ccc(O)c(C)c2O)cc1` [k-1:H-9], for which the “proliferation rate (%)” value in data set [1] worked out at 95.96%.

For `CC/C(=N\NC(=O)OCc1cccc(O)c1)c1ccc(O)c(C)c1O` [k-1:N-1], the viability at 1 µM in data set [2] (read-out: relative value of RLU (number of viable cells), 2D single layer culture, 1 μM) came out at 101%; in data set [2] (read-out: relative value of RLU (number of viable cells), 3D culture (deacylated gellan gum), 1 μM), 101%. The viability at 5 µM in data set [2] (read-out: relative value of RLU (number of viable cells), 2D single layer culture, 5 μM) was 94%; in data set [2] (read-out: relative value of RLU (number of viable cells), 3D culture (deacylated gellan gum), 5 μM) it was 134%. The viability at 10 µM in data set [2] (read-out: relative value of RLU (number of viable cells), 2D single layer culture, 10 μM) was 89%; in data set [2] (read-out: relative value of RLU (number of viable cells), 3D culture (deacylated gellan gum), 10 μM), 169%. In addition, the viability at 20 µM in data set [2] (read-out: relative value of RLU (number of viable cells), 2D single layer culture, 20 μM) stood at 84%; in data set [2] (read-out: relative value of RLU (number of viable cells), 3D culture (deacylated gellan gum), 20 μM), 186%. The entries for the “cell proliferation promoting effect (in words)” value in data set [2] (setting [3]) and in data set [2] (setting [4]) were “a favorable cell proliferation promoting effect was not observed” and “exhibited cell proliferation promoting effect at a wide concentration range”, respectively.

`CC(=NNC(=O)CNc1ccccc1)c1ccc(O)c(C)c1O` [k-2:H-1]: the “proliferation rate (%)” value in data set [1] is listed as 184.61%.

As to `CC(=NNC(=O)CNc1ccccc1C)c1ccc(O)c(C)c1O` [k-2:H-2], the “proliferation rate (%)” value in data set [1] is on record as 131.13%.

On to `CC(=NNC(=O)CNc1cccc(C)c1)c1ccc(O)c(C)c1O` [k-2:H-3], for which the “proliferation rate (%)” value in data set [1] turned out to be 139.33%.

For the compound `CC(=NNC(=O)CNc1ccc(C)cc1)c1ccc(O)c(C)c1O` [k-2:H-4], the “proliferation rate (%)” value in data set [1] is listed as 128.2%.

For `CC(=NNC(=O)CNc1ccc(F)cc1)c1ccc(O)c(C)c1O` [k-2:H-5], the “proliferation rate (%)” value in data set [1] is given as 158.56%.

On to `CC(=NNC(=O)CNc1cccc2ccccc12)c1ccc(O)c(C)c1O` [k-2:H-6], for which, in data set [1], the “proliferation rate (%)” value was 116.79%.

For the compound `CCC(Nc1ccccc1)C(=O)NN=C(C)c1ccc(O)c(C)c1O` (stereo not shown) [k-2:H-7], in data set [1], the “proliferation rate (%)” value is given as 201.93%.

On to `CCOc1ccc(NCC(=O)NN=C(C)c2ccc(O)c(C)c2O)cc1` [k-2:H-9], for which the “proliferation rate (%)” value in data set [1] is on record as 131.36%.

In the case of `CCC(=NNC(=O)CNc1ccccc1)c1c(O)cc(O)c(C)c1O` [k-3:H-1], in data set [1], the “proliferation rate (%)” value worked out at 133.76%.

On to `CCC(=NNC(=O)CNc1ccccc1C)c1c(O)cc(O)c(C)c1O` [k-3:H-2], for which the “proliferation rate (%)” value in data set [1] worked out at 117.84%.

Consider `CCC(=NNC(=O)CNc1cccc(C)c1)c1c(O)cc(O)c(C)c1O` [k-3:H-3], for which, in data set [1], the “proliferation rate (%)” value stood at 134.65%.

Take `CCC(=NNC(=O)CNc1ccc(C)cc1)c1c(O)cc(O)c(C)c1O` [k-3:H-4]: the “proliferation rate (%)” value in data set [1] is recorded as 135.5%.

On to `CCC(=NNC(=O)CNc1ccc(F)cc1)c1c(O)cc(O)c(C)c1O` [k-3:H-5], for which the “proliferation rate (%)” value in data set [1] worked out at 141.82%.

As for `CCC(=NNC(=O)CNc1cccc2ccccc12)c1c(O)cc(O)c(C)c1O` [k-3:H-6], the “proliferation rate (%)” value in data set [1] was found to be 134.6%.

For `CCC(=NNC(=O)C(CC)Nc1ccccc1)c1c(O)cc(O)c(C)c1O` (stereo not shown) [k-3:H-7], the “proliferation rate (%)” value in data set [1] turned out to be 126.34%.

As for `CCOc1ccc(NCC(=O)NN=C(CC)c2c(O)cc(O)c(C)c2O)cc1` [k-3:H-9], in data set [1], the “proliferation rate (%)” value amounted to 129.93%.

As to `Cc1c(O)ccc(C(CC(C)C)=NNC(=O)CNc2ccccc2)c1O` [k-5:H-1], the “proliferation rate (%)” value in data set [1] stood at 148.88%.

On to `Cc1ccccc1NCC(=O)NN=C(CC(C)C)c1ccc(O)c(C)c1O` [k-5:H-2], for which the “proliferation rate (%)” value in data set [1] is listed as 133.96%.

Turning to `Cc1cccc(NCC(=O)NN=C(CC(C)C)c2ccc(O)c(C)c2O)c1` [k-5:H-3], the “proliferation rate (%)” value in data set [1] worked out at 146.44%.

Consider `Cc1ccc(NCC(=O)NN=C(CC(C)C)c2ccc(O)c(C)c2O)cc1` [k-5:H-4], for which the “proliferation rate (%)” value in data set [1] worked out at 114.76%.

As for `Cc1c(O)ccc(C(CC(C)C)=NNC(=O)CNc2ccc(F)cc2)c1O` [k-5:H-5], the “proliferation rate (%)” value in data set [1] was 145.4%.

On to `Cc1c(O)ccc(C(CC(C)C)=NNC(=O)CNc2cccc3ccccc23)c1O` [k-5:H-6], for which the “proliferation rate (%)” value in data set [1] is listed as 115.2%.

As for `CCC(Nc1ccccc1)C(=O)NN=C(CC(C)C)c1ccc(O)c(C)c1O` (stereo not shown) [k-5:H-7], the “proliferation rate (%)” value in data set [1] turned out to be 130.63%.

Regarding `CCOc1ccc(NCC(=O)NN=C(CC(C)C)c2ccc(O)c(C)c2O)cc1` [k-5:H-9], the “proliferation rate (%)” value in data set [1] was found to be 38.38%.
